In ChEMBL document CHEMBL1142822, “Analysis of structure-activity relationships for the 'A-region' of N-(4-t-butylbenzyl)-N'-[4-(methylsulfonylamino)benzyl]thiourea analogues as TRPV1 antagonists” (Bioorg Med Chem Lett, 2005):

Legend:
[1] = molecular target: T1, Transient receptor potential cation channel subfamily V member 1 (Rattus norvegicus, UniProt O35433); assay: In vitro binding affinity for rat TRPV1 expressed in CHO cells using [3H]-RTX; assay type: cell-based
[2] = molecular target: T1, Transient receptor potential cation channel subfamily V member 1; assay: Agonist activity by [Ca2+] uptake in CHO cells expressing rat TRPV1 at 10-30 uM; WE = Weakly effective; assay type: functional, cell-based
[3] = molecular target: T1, Transient receptor potential cation channel subfamily V member 1; assay: Antagonist activity for rat TRPV1 expressed in CHO cells; Weakly effective; assay type: functional, cell-based
[4] = molecular target: T1, Transient receptor potential cation channel subfamily V member 1; assay: Antagonist activity for rat TRPV1 expressed in CHO cells; assay type: functional, cell-based
[5] = molecular target: T1, Transient receptor potential cation channel subfamily V member 1; assay: Agonist activity by 300 nM capsaicin induced [Ca2+] uptake in CHO cells expressing rat TRPV1 at 10-30 uM; NE = Not effective; assay type: functional, cell-based
[6] = molecular target: T1, Transient receptor potential cation channel subfamily V member 1; assay: Agonist activity by 300 nM capsaicin induced [Ca2+] uptake in CHO cells expressing rat TRPV1 at 10-30 uM; WE = Weakly effective; assay type: functional, cell-based
[7] = molecular target: T1, Transient receptor potential cation channel subfamily V member 1; assay: Agonist activity by [Ca2+] uptake in CHO cells expressing rat TRPV1 at 10-30 uM; NE = Not effective; assay type: functional, cell-based
[8] = molecular target: T1, Transient receptor potential cation channel subfamily V member 1; assay: Antagonist activity for rat TRPV1 expressed in CHO cells; Not effective; assay type: functional, cell-based
[9] = molecular target: T1, Transient receptor potential cation channel subfamily V member 1; assay: Agonist activity by [Ca2+] uptake in CHO cells expressing rat TRPV1 at 10-30 uM; assay type: functional, cell-based
[10] = molecular target: T1, Transient receptor potential cation channel subfamily V member 1; assay: In vitro binding affinity for rat TRPV1 expressed in CHO cells using [3H]RTX; Not effective; assay type: cell-based

T1 sequence (O35433 whole entry): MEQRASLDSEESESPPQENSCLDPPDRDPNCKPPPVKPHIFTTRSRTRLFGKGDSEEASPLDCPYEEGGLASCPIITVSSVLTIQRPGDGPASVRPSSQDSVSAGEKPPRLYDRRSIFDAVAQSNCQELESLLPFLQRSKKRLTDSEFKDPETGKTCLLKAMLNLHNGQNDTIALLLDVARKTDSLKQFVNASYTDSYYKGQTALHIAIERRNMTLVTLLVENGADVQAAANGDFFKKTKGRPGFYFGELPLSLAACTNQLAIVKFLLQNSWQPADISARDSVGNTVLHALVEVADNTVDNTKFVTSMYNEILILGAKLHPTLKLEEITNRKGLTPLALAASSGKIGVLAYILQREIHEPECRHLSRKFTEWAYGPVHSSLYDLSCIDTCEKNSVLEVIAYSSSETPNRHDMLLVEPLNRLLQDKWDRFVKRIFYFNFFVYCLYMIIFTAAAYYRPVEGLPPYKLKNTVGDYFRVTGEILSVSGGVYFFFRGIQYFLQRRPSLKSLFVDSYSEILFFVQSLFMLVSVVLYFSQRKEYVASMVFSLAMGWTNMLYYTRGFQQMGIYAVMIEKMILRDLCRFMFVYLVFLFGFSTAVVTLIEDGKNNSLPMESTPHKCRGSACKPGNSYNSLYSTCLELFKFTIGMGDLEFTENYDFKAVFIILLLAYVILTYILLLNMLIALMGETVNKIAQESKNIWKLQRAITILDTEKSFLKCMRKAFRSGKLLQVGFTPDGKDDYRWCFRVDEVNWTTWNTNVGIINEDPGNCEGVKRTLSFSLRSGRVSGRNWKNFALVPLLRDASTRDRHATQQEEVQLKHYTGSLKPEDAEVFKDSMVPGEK

CC(C)(C)c1ccc(C/N=C(\S)NCc2ccc(NS(N)(=O)=O)cc2)cc1
Ki [1]: 650 nM | EC50 [2]: Partial agonist | Ki [3]: Partial antagonist

CC(C)(C)c1ccc(C/N=C(\S)NCc2ccc(NS(=O)(=O)CCN=[N+]=[N-])cc2)cc1
Ki [4]: 231 nM | Ki [1]: 145 nM | EC50 [5]: Not Active

CC(C)(C)c1ccc(C/N=C(\S)NCCc2ccc(NS(C)(=O)=O)cc2)cc1
Ki [4]: 699 nM | Ki [1]: 3900 nM | EC50 ([6]; cho): Partial agonist

CC(C)(C)c1ccc(C/N=C(\S)NCc2ccc(NS(C)(=O)=O)cn2)cc1
Ki [4]: 4100 nM | EC50 ([7]; cho): Not Active

CC(C)(C)c1ccc(C/N=C(\S)NCc2ccc(NS(C)(=O)=O)c(O)c2)cc1
Ki [1]: 750 nM | EC50 [2]: Partial agonist | Ki [3]: Partial antagonist

CSc1cccc(C/N=C(\S)NCc2ccc(C(C)(C)C)cc2)c1
Ki [8]: Not Active | Ki [1]: 580 nM | EC50 ([6]; cho): Partial agonist

CC(C)(C)c1ccc(C/N=C(\S)NCc2ccc(CNS(C)(=O)=O)cc2)cc1
Ki [8]: Not Active | EC50 [9]: 1720 nM

CC(C)(C)c1ccc(C/N=C(\S)NCc2ccc(NS(C)(=O)=O)c(S(C)(=O)=O)c2)cc1
Ki [8]: Not Active | Ki [10]: Not Active | EC50 ([7]; cho): Not Active

CC(C)(C)c1ccc(C/N=C(\S)NCc2ccc(NS(C)(=O)=O)c([N+](=O)[O-])c2)cc1
Ki [4]: 610 nM | Ki [1]: 1300 nM | EC50 ([7]; cho): Not Active

CC(C)(C)c1ccc(C/N=C(\S)NCc2cccc(NS(C)(=O)=O)c2)cc1
Ki [8]: Not Active | Ki [1]: 6000 nM | EC50 ([7]; read-out: EC50): 4100 nM

CC(C)(C)c1ccc(C/N=C(\S)Nc2ccc(NS(C)(=O)=O)cc2)cc1
Ki [4]: 6800 nM | Ki [1]: 9560 nM | EC50 [2]: Partial agonist

CC(C)(C)c1ccc(C/N=C(\S)NCc2ccc(NS(C)(=O)=O)cc2Cl)cc1
Ki [4]: 45.5 nM | Ki [1]: 144 nM | EC50 ([7]; cho): Not Active

CC(C)Oc1cc(C/N=C(\S)NCc2ccc(C(C)(C)C)cc2)ccc1NS(C)(=O)=O
Ki [4]: 3600 nM | Ki [1]: 8070 nM | EC50 ([7]; cho): Not Active

CC(C)(C)c1ccc(CNC(=S)NCc2ccc(NS(C)(=O)=O)cc2)cc1
EC50 ([7]; cho): Not Active

COc1cc(CNC(=S)NCc2ccc(C(C)(C)C)cc2)ccc1NS(C)(=O)=O
EC50 ([6]; cho): Partial agonist

CC(C)(C)c1ccc(C/N=C(\S)NCc2ccc(NS(C)(=O)=O)c(Cl)c2)cc1
Ki [4]: 400 nM | Ki [1]: 1160 nM | EC50 [5]: Not Active

CC(C)(C)c1ccc(C/N=C(\S)NCc2ccc(NS(C)(=O)=O)cc2F)cc1
Ki [4]: 27.3 nM | Ki [1]: 215 nM | EC50 ([7]; cho): Not Active

CC(C)(C)c1ccc(C/N=C(\S)NCc2cccc(S(C)(=O)=O)c2)cc1
Ki [8]: Not Active | Ki [1]: 1000 nM | EC50 ([6]; read-out: EC50): 1010 nM

CC(C)(C)c1ccc(C/N=C(\S)NCc2ccc(NS(C)(=O)=O)cc2C(F)(F)F)cc1
Ki [4]: 119 nM | Ki [1]: 440 nM | EC50 ([7]; cho): Not Active

CC(C)(C)c1ccc(C/N=C(\S)NCc2ccc(NS(=O)(=O)CCN)cc2)cc1
Ki [1]: 4640 nM | Ki [3]: Partial antagonist | EC50 ([7]; cho): Not Active

CC(C)(C)c1ccc(C/N=C(\S)NCc2cnc(NS(C)(=O)=O)cn2)cc1
Ki [8]: Not Active | Ki [10]: Not Active | EC50 ([7]; cho): Not Active

CC(C)(C)c1ccc(CNC(=S)NCc2ccc(NS(C)(=O)=O)c(F)c2)cc1
EC50 ([7]; cho): Not Active

C[S+]([O-])c1cccc(C/N=C(\S)NCc2ccc(C(C)(C)C)cc2)c1 (stereo not drawn)
Ki [8]: Not Active | Ki [1]: 3600 nM | EC50 ([7]; read-out: EC50): 1890 nM

CC(C)(C)c1ccc(C/N=C(\S)NCc2ccc(NS(C)(=O)=O)nc2)cc1
Ki [4]: 177 nM | Ki [1]: 4100 nM | EC50 ([7]; cho): Not Active

C=CS(=O)(=O)Nc1ccc(CN/C(S)=N/Cc2ccc(C(C)(C)C)cc2)cc1
Ki [8]: Not Active | EC50 [9]: 250 nM | Ki [1]: 231 nM

Oc1cc2c(cc1O)CN(C(=S)NCCc1ccc(Cl)cc1)CCC2 [CAPSAZEPINE]
EC50 ([7]; cho): Not Active
